Patent US11242350B2, “Spirocyclic ROR-gamma modulators” (Escalier Biosciences B.V., priority 2018, dated 2022)

Target: RORγt (Homo sapiens (Human), UniProt P51449)
Assay: Gal4 ligand binding assay (RORγt Gal fusion luciferase reporter assay in HEK293T cells)
Type: cell-based
Conditions: RORγt inverse agonists in RORγt Gal fusion assay
Procedure, shortened: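 Stable HEK293T line expressing the receptor fused to the Gal4 DBD, with a Gal4 UAS-driven luciferase; constitutively active, so agonism and inverse agonism both register. 10-point 1:3 titrations, 60 μM to 3 nM as prepared in media (added as 2×), 0.2% final DMSO; 24 h at 37 °C. Luminescence normalised to vehicle-only wells.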

Sequence of RORγt (P51449 269-508): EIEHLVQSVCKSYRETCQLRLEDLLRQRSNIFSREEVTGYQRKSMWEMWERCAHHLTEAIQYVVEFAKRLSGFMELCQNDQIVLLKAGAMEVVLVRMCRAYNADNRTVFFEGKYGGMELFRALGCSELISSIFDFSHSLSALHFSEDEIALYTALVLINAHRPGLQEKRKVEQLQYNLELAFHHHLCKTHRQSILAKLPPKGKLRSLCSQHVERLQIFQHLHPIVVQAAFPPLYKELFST

Row | IC50 | SMILES
1 | < 50 nM | Cc1cc(C(O)(C(F)(F)F)C(F)(F)F)ccc1-c1cc(F)c(CN2CC3(C2)CN(S(C)(=O)=O)C3)cc1C(C)C [Example 79, 1,1,1,3,3,3-hexafluoro-2-(5′-fluoro-2′-isopropyl-2-methyl-4′-((6-(methylsulfonyl)-2,6-diazaspiro[3.3]heptan-2-yl)methyl)-[1,1′-biphenyl]-4-yl)propan-2-ol]
2 | < 50 nM | CC(C)c1cc(CN2CC3(C2)CN(S(C)(=O)=O)C3)c(F)cc1-c1ccc(C(O)(C(F)(F)F)C(F)(F)F)cc1F [Example 80, 2-(2,5′-difluoro-2′-isopropyl-4′-((6-(methylsulfonyl)-2,6-diazaspiro[3.3]heptan-2-yl)methyl)-[1,1′-biphenyl]-4-yl)-1,1,1,3,3,3-hexafluoropropan-2-ol]
3 | < 50 nM | CC(C)c1cc(CN2CC3(C2)CN(S(C)(=O)=O)C3)c(F)cc1-c1ccc(C(O)(C(F)(F)F)C(F)(F)F)cc1Cl [Example 81, 2-(2-chloro-5′-fluoro-2′-isopropyl-4′-((6-(methylsulfonyl)-2,6-diazaspiro[3.3]heptan-2-yl)methyl)-[1,1′-biphenyl]-4-yl)-1,1,1,3,3,3-hexafluoropropan-2-ol]
4 | < 50 nM | CCc1cc(CN2CC3(C2)CN(S(C)(=O)=O)C3)c(F)cc1-c1ccc(C(O)(C(F)(F)F)C(F)(F)F)cc1F [Example 82, 2-(2′-ethyl-2,5′-difluoro-4′-((6-(methylsulfonyl)-2,6-diazaspiro[3.3]heptan-2-yl)methyl)-[1,1′-biphenyl]-4-yl)-1,1,1,3,3,3-hexafluoropropan-2-ol]
5 | < 50 nM | CCc1cc(CN2CC3(C2)CN(S(C)(=O)=O)C3)c(F)cc1-c1ccc(C(O)(C(F)(F)F)C(F)(F)F)cc1Cl [Example 83, 2-(2-chloro-2′-ethyl-5′-fluoro-4′-((6-(methylsulfonyl)-2,6-diazaspiro[3.3]heptan-2-yl)methyl)-[1,1′-biphenyl]-4-yl)-1,1,1,3,3,3-hexafluoropropan-2-ol]
6 | < 50 nM | Cc1cc(C(O)(C(F)(F)F)C(F)(F)F)ccc1-c1c(F)cc(CN2CC3(C2)CN(S(C)(=O)=O)C3)c(F)c1C(C)C [Example 84, 2-(3′,6′-difluoro-2′-isopropyl-2-methyl-4′-((6-(methylsulfonyl)-2,6-diazaspiro[3.3]heptan-2-yl)methyl)-[1,1′-biphenyl]-4-yl)-1,1,1,3,3,3-hexafluoropropan-2-ol]
7 | < 50 nM | CCc1cc(C(O)(C(F)(F)F)C(F)(F)F)ccc1-c1c(F)cc(CN2CC3(C2)CN(S(C)(=O)=O)C3)c(F)c1C(C)C [Example 85, 2-(2-ethyl-3′,6′-difluoro-2′-isopropyl-4′-((6-(methylsulfonyl)-2,6-diazaspiro[3.3]heptan-2-yl)methyl)-[1,1′-biphenyl]-4-yl)-1,1,1,3,3,3-hexafluoropropan-2-ol]
8 | < 50 nM | CC(C)c1c(F)c(CN2CC3(C2)CN(S(C)(=O)=O)C3)cc(F)c1-c1ccc(C(O)(C(F)(F)F)C(F)(F)F)cc1F [Example 86, 1,1,1,3,3,3-hexafluoro-2-(2,3′,6′-trifluoro-2′-isopropyl-4′-((6-(methylsulfonyl)-2,6-diazaspiro[3.3]heptan-2-yl)methyl)-[1,1′-biphenyl]-4-yl)propan-2-ol]
9 | < 50 nM | CC(C)c1c(F)c(CN2CC3(C2)CN(S(C)(=O)=O)C3)cc(F)c1-c1ccc(C(O)(C(F)(F)F)C(F)(F)F)cc1Cl [Example 87, 2-(2-chloro-3′,6′-difluoro-2′-isopropyl-4′-((6-(methylsulfonyl)-2,6-diazaspiro[3.3]heptan-2-yl)methyl)-[1,1′-biphenyl]-4-yl)-1,1,1,3,3,3-hexafluoropropan-2-ol]
10 | < 50 nM | CS(=O)(=O)N1CC2(CN(Cc3cc(F)c(-c4ccc(C(O)(C(F)(F)F)C(F)(F)F)cc4)c(C4CC4)c3F)C2)C1 [Example 88, 2-(2′-cyclopropyl-3′,6′-difluoro-4′-((6-(methylsulfonyl)-2,6-diazaspiro[3.3]heptan-2-yl)methyl)-[1,1′-biphenyl]-4-yl)-1,1,1,3,3,3-hexafluoropropan-2-ol]
11 | < 50 nM | Cc1cc(C(O)(C(F)(F)F)C(F)(F)F)ccc1-c1c(F)cc(CN2CC3(C2)CN(S(C)(=O)=O)C3)c(F)c1C1CC1 [Example 89, 2-(2′-cyclopropyl-3′,6′-difluoro-2-methyl-4′-((6-(methylsulfonyl)-2,6-diazaspiro[3.3]heptan-2-yl)methyl)-[1,1′-biphenyl]-4-yl)-1,1,1,3,3,3-hexafluoropropan-2-ol]
12 | < 50 nM | CCc1cc(C(O)(C(F)(F)F)C(F)(F)F)ccc1-c1c(F)cc(CN2CC3(C2)CN(S(C)(=O)=O)C3)c(F)c1C1CC1 [Example 90, 2-(2′-cyclopropyl-2-ethyl-3′,6′-difluoro-4′-((6-(methylsulfonyl)-2,6-diazaspiro[3.3]heptan-2-yl)methyl)-[1,1′-biphenyl]-4-yl)-1,1,1,3,3,3-hexafluoropropan-2-ol]
13 | < 50 nM | CS(=O)(=O)N1CC2(CN(Cc3cc(F)c(-c4ccc(C(O)(C(F)(F)F)C(F)(F)F)cc4F)c(C4CC4)c3F)C2)C1 [Example 91, 2-(2′-cyclopropyl-2,3′,6′-trifluoro-4′-((6-(methylsulfonyl)-2,6-diazaspiro[3.3]heptan-2-yl)methyl)-[1,1′-biphenyl]-4-yl)-1,1,1,3,3,3-hexafluoropropan-2-ol]
14 | < 50 nM | CS(=O)(=O)N1CC2(CN(Cc3cc(F)c(-c4ccc(C(O)(C(F)(F)F)C(F)(F)F)cc4Cl)c(C4CC4)c3F)C2)C1 [Example 92, 2-(2-chloro-2′-cyclopropyl-3′,6′-difluoro-4′-((6-(methylsulfonyl)-2,6-diazaspiro[3.3]heptan-2-yl)methyl)-[1,1′-biphenyl]-4-yl)-1,1,1,3,3,3-hexafluoropropan-2-ol]
